Source: PMC8449061, “A structural model for (GlcNAc)2 translocation via a periplasmic chitooligosaccharide-binding protein from marine Vibrio bacteria” (The Journal of Biological Chemistry, 2021)

Assays:
Format in all cases: binding
VhCBP W363A = test: ITC titration of VhCBP mutant W363A with (GlcNAc)2
Text: (§1) These proteins were used for ITC binding experiments with (GlcNAc)2 as the ligand. […] Degrees of conservation among five members of cluster/subcluster C-IV SBPs (VhCBP, VcCBP, TmCeBP, TmMnBP1, and TmMnBP2) are also represented by coloring dark red (high degree of conservation) to pale red (moderate degree of conservation) to white (low degree of conservation).
(§2) Figure 5 ITC profiles obtained from (GlcNAc)2titration using VhCBP WT and mutants. Thermograms (upper) and binding isotherms with theoretical fits (lower) of the individual titrations are presented. Titration experiments were conducted in 20 mM Tris HCl, pH 8.0, at 25 °C. ITC, isothermal titration calorimetry. VhCBP, CBP from Vibrio campbellii type strain ATCC BAA-1116.
(§3) ITC experiments were conducted by titrating 200 μM (GlcNAc)n (n = 2, 3, or 4) solutions from the injection syringe into 20 μM WT VhCBP in the sample cell. The titrations were performed in 20 mM Tris-HCl buffer, pH 8.0, by a PEAQ-ITC (Malvern Instruments) using the operational software installed in the equipment. Briefly, the temperature in the sample cell was maintained at 25 °C, and the difference in temperature (ΔT) between the reference cell and the sample cell was compensated by heaters fitted to the cells. The compensation energy utilized per second was plotted against experimental time. Peak integrations of the individual troughs were replotted against the molar ratio of the ligand to protein. The binding isotherm thus obtained was used for data-fitting analysis using the ‘One-Set of Sites’ model defined in MicroCal PEAQ-ITC Analysis Software to obtain Kd, ΔG°, ΔH°, and ΔS° terms. […] Titrations of (GlcNAc)2 to the individual VhCBP mutants were performed as described for the WT protein.
(§4) Table S2: ITC experimental conditions for titration of VhCBP and its mutants with (GlcNAc) 2-4 .
(§5) Table S3: Conditions for co-crystallization of VhCBP mutants with (GlcNAc) 2.

VhCBP S221A = test: ITC titration of VhCBP mutant S221A with (GlcNAc)2
Text: as §1, §2, §3, §4, §5

VhCBP N204A = test: ITC titration of VhCBP mutant N204A with (GlcNAc)2
Text: as §1, §2, §3, §4, §5

VhCBP D365A = test: ITC titration of VhCBP mutant D365A with (GlcNAc)2
Text: as §1, §2, §3, §4, §5

VhCBP W363A/W513A = test: ITC titration of VhCBP double mutant W363A/W513A with (GlcNAc)2; details: 20 mM Tris HCl pH 8.0, 25 °C
Text: To evaluate the contributions of the amino acid residues in (GlcNAc)2 binding, we carried out site-directed mutagenesis to substitute the designated residues and successfully produced nine single mutants, E10A, N204A, S221A, W363A, D365A, N409A, F411A, F437A, and W513A, and one double mutant, W363A/W513A. All proteins were purified to homogeneity by Ni-NTA affinity chromatography, followed by gel filtration, and their purities were checked by SDS-PAGE analysis (Fig. S2). These proteins were used for ITC binding experiments with (GlcNAc)2 as the ligand. […] The effects on ΔG° in the other mutants (E10A, N204A, S221A, N409A, and F411A) were moderate, although one mutation had been introduced into an amino acid with a high degree of conservation (Asn^204). Changes in ΔG° (ΔΔG°) resulting from all the mutations were mapped on the structure of VhCBP in complex with (GlcNAc)2 as shown in Figure 6B. Degrees of conservation among five members of cluster/subcluster C-IV SBPs (VhCBP, VcCBP, TmCeBP, TmMnBP1, and TmMnBP2) are also represented by coloring dark red (high degree of conservation) to pale red (moderate degree of conservation) to white (low degree of conservation).
Figure 5 ITC profiles obtained from (GlcNAc)2titration using VhCBP WT and mutants. Thermograms (upper) and binding isotherms with theoretical fits (lower) of the individual titrations are presented. […]

VhCBP N409A = test: ITC titration of VhCBP mutant N409A with (GlcNAc)2
Text: as §1, §2, §3, §4, §5

VhCBP F411A = test: ITC titration of VhCBP mutant F411A with (GlcNAc)2
Text: as §1, §2, §3, §4, §5

VhCBP E10A = test: ITC titration of VhCBP mutant E10A with (GlcNAc)2
Text: as §1, §2, §3, §4, §5

VhCBP F437A = test: ITC titration of VhCBP mutant F437A with (GlcNAc)2
Text: as §1, §2, §3, §4, §5

VhCBP WT = test: ITC titration of WT VhCBP with (GlcNAc)2–4; details: for ΔG° / ΔH° / −TΔS° / Kd: 20 mM Tris-HCl pH 8.0, 25 °C; for ΔG° / ΔH° / −TΔS°: mean ± SD; for Kd: n fixed at 1, mean ± SD of three experiments; for fold lower affinity than (GlcNAc)2: from Kd values
Procedure: We previously reported ITC data for (GlcNAc)2–4 binding to VhCBP in 20 mM potassium phosphate, pH 8.0, at 4 °C ([13]). Here, we re-evaluated the ITC data by conducting binding experiments in Tris HCl, pH 8.0, at 25 °C using (GlcNAc)n (n = 2–4) as the ligands. The binding interactions for individual ligands were determined assuming a 1:1 stoichiometry.
as §2, §3
Table S2: ITC experimental conditions for titration of VhCBP and its mutants with (GlcNAc) 2-4 . […]

VhCBP W513A = test: ITC titration of VhCBP mutant W513A with (GlcNAc)2
Text: as §1, §2, §3, §4, §5

CC(=O)N[C@H]1[C@H](O[C@H]2[C@H](O)[C@@H](NC(C)=O)C(O)O[C@@H]2CO)O[C@H](CO)[C@@H](O)[C@@H]1O (stereo partly drawn) [(GlcNAc)2]
Kd (VhCBP W363A; ITC, W363A, 20 mM Tris-HCl pH 8.0, 25 °C, mean ± SD): 80.2 ± 19.9 µM | ΔG° (VhCBP W363A; ITC, W363A, pH 8.0, 25 °C): -5.6 ± 0.1 kcal/mol | ΔH° (VhCBP W363A; ITC, W363A, pH 8.0, 25 °C): -1.9 ± 1.8 kcal/mol | −TΔS° (VhCBP W363A; ITC, W363A, pH 8.0, 25 °C): -3.7 ± 2.0 kcal/mol | ΔΔG° (VhCBP W363A; W363A versus WT): +4.7 ± 0.4 kcal.mol^−1 | Kd (VhCBP S221A; ITC, S221A, 20 mM Tris-HCl pH 8.0, 25 °C, mean ± SD): 0.07 ± 0.06 µM | ΔG° (VhCBP S221A; ITC, S221A, pH 8.0, 25 °C): -10.2 ± 1.0 kcal/mol | ΔH° (VhCBP S221A; ITC, S221A, pH 8.0, 25 °C): -5.3 ± 0.7 kcal/mol | −TΔS° (VhCBP S221A; ITC, S221A, pH 8.0, 25 °C): -4.9 ± 1.4 kcal/mol | ΔΔG° (VhCBP S221A; S221A versus WT): +0.1 ± 1.0 kcal.mol^−1 | Kd (VhCBP N204A; ITC, N204A, 20 mM Tris-HCl pH 8.0, 25 °C, mean ± SD): 0.83 ± 0.17 µM | ΔG° (VhCBP N204A; ITC, N204A, pH 8.0, 25 °C): -8.3 ± 0.1 kcal/mol | ΔH° (VhCBP N204A; ITC, N204A, pH 8.0, 25 °C): -0.75 ± 0.05 kcal/mol | −TΔS° (VhCBP N204A; ITC, N204A, pH 8.0, 25 °C): -7.6 ± 0.2 kcal/mol | ΔΔG° (VhCBP N204A; N204A versus WT): +2.1 ± 0.3 kcal.mol^−1 | ΔΔG° (VhCBP D365A; D365A versus WT): +8.6 ± 0.3 kcal.mol^−1 | Kd (VhCBP D365A; ITC, D365A, 20 mM Tris-HCl pH 8.0, 25 °C, mean ± SD): 65000 µM | ΔG° (VhCBP D365A; ITC, D365A, pH 8.0, 25 °C): -1.6 ± 0.0 kcal/mol | ΔH° (VhCBP D365A; ITC, D365A, pH 8.0, 25 °C): -11.3 ± 0.4 kcal/mol | −TΔS° (VhCBP D365A; ITC, D365A, pH 8.0, 25 °C): 9.7 ± 0.4 kcal/mol | binding detected by ITC (ND represents no detectable binding) (VhCBP W363A/W513A): did not exhibit any clear heat release | Kd (VhCBP N409A; ITC, N409A, 20 mM Tris-HCl pH 8.0, 25 °C, mean ± SD): 0.45 ± 0.1 µM | ΔG° (VhCBP N409A; ITC, N409A, pH 8.0, 25 °C): -8.7 ± 0.1 kcal/mol | ΔH° (VhCBP N409A; ITC, N409A, pH 8.0, 25 °C): -9.6 ± 0.6 kcal/mol | −TΔS° (VhCBP N409A; ITC, N409A, pH 8.0, 25 °C): 1.0 ± 0.7 kcal/mol | ΔΔG° (VhCBP N409A; N409A versus WT): +1.6 ± 0.2 kcal.mol^−1 | ΔΔG° (VhCBP F411A; F411A versus WT): +1.6 ± 0.3 kcal.mol^−1 | Kd (VhCBP F411A; ITC, F411A, 20 mM Tris-HCl pH 8.0, 25 °C, mean ± SD): 0.4 ± 0.07 µM | ΔG° (VhCBP F411A; ITC, F411A, pH 8.0, 25 °C): -8.7 ± 0.1 kcal/mol | ΔH° (VhCBP F411A; ITC, F411A, pH 8.0, 25 °C): -3.3 ± 0.1 kcal/mol | −TΔS° (VhCBP F411A; ITC, F411A, pH 8.0, 25 °C): -5.4 ± 0.1 kcal/mol | ΔΔG° (VhCBP E10A; E10A versus WT): +1.9 ± 0.2 kcal.mol^−1 | Kd (VhCBP E10A; ITC, E10A, 20 mM Tris-HCl pH 8.0, 25 °C, mean ± SD): 0.71 ± 0.07 µM | ΔG° (VhCBP E10A; ITC, E10A, pH 8.0, 25 °C): -8.4 ± 0.1 kcal/mol | ΔH° (VhCBP E10A; ITC, E10A, pH 8.0, 25 °C): -8.8 ± 0.1 kcal/mol | −TΔS° (VhCBP E10A; ITC, E10A, pH 8.0, 25 °C): 0.4 ± 0.2 kcal/mol | ΔΔG° (VhCBP F437A; F437A versus WT): +4.1 ± 0.3 kcal.mol^−1 | Kd (VhCBP F437A; ITC, F437A, 20 mM Tris-HCl pH 8.0, 25 °C, mean ± SD): 29.7 ± 0.5 µM | ΔG° (VhCBP F437A; ITC, F437A, pH 8.0, 25 °C): -6.2 ± 0.0 kcal/mol | ΔH° (VhCBP F437A; ITC, F437A, pH 8.0, 25 °C): -11.0 ± 0.4 kcal/mol | ΔG° (VhCBP WT): -10.3 ± 0.3 kcal/mol | ΔH° (VhCBP WT): -3.9 ± 0.1 kcal/mol | −TΔS° (VhCBP WT): -6.4 ± 0.2 kcal/mol | Kd (VhCBP WT): 0.03 ± 0.01 µM | Kd (VhCBP W513A; ITC, W513A ('half-open'/semiopen state), 20 mM Tris-HCl pH 8.0, 25 °C, mean ± SD): 36.8 ± 7.4 µM | ΔG° (VhCBP W513A; ITC, W513A, pH 8.0, 25 °C): -6.1 ± 0.1 kcal/mol | ΔH° (VhCBP W513A; ITC, W513A, pH 8.0, 25 °C): -5.8 ± 0.0 kcal/mol | −TΔS° (VhCBP W513A; ITC, W513A, pH 8.0, 25 °C): -0.3 ± 0.1 kcal/mol | lower affinity of semiopen state than the closed state (VhCBP W513A; W513A (semiopen) versus WT (closed), from Kd): 1200 | ΔΔG° (VhCBP W513A; W513A versus WT): +4.2 ± 0.3 kcal.mol^−1

CC(=O)N[C@H]1[C@H](O[C@H]2[C@H](O)[C@@H](NC(C)=O)C(O)O[C@@H]2CO)O[C@H](CO)[C@@H](O[C@@H]2O[C@H](CO)[C@@H](O)[C@H](O)[C@H]2NC(C)=O)[C@@H]1O (stereo partly drawn) [(GlcNAc)3]
ΔG° (VhCBP WT): -9.7 ± 0.3 kcal/mol | ΔH° (VhCBP WT): -4.7 ± 0.1 kcal/mol | −TΔS° (VhCBP WT): -5.0 ± 0.3 kcal/mol | Kd (VhCBP WT): 0.09 ± 0.05 µM | fold lower affinity than (GlcNAc)2 (VhCBP WT): 3 fold

CC(=O)N[C@H]1[C@H](O[C@H]2[C@H](O)[C@@H](NC(C)=O)C(O)O[C@@H]2CO)O[C@H](CO)[C@@H](O[C@@H]2O[C@H](CO)[C@@H](O[C@@H]3O[C@H](CO)[C@@H](O)[C@H](O)[C@H]3NC(C)=O)[C@H](O)[C@H]2NC(C)=O)[C@@H]1O (stereo partly drawn) [(GlcNAc)4]
ΔG° (VhCBP WT): -8.8 ± 0.3 kcal/mol | ΔH° (VhCBP WT): -4.8 ± 0.6 kcal/mol | −TΔS° (VhCBP WT): -4.0 ± 1.0 kcal/mol | Kd (VhCBP WT): 0.4 ± 0.24 µM | fold lower affinity than (GlcNAc)2 (VhCBP WT): 12 fold
